Tested on: bacteria
Test: Stabilizing effect of lysine on CPC-STPP / CPC-DV interaction (bacterial viability)
Assay type: cell-based
Details: PBS 100
From the text: Compositions were created to test the stabilizing effect that lysine had on the CPC and DV polymer. Mouthwashes were created according to the method of Example 1. Each sample was created with CPC and either STPP or DV. The compositions also contained varied amounts of lysine. The samples created are summarized below.

CCO [Ethanol]
Bacterial Viability at pH 4.6 (%) (CPC-DV mouthwashes with varied lysine, pH 4.6): 11%
Bacterial Viability at pH 6.0 (%) (CPC-DV mouthwashes with varied lysine, pH 6.0): 19%
Bacterial Viability (%) (CPC-STPP mouthwashes with varied lysine): 23%
